Reference: patent publication US7968542B2, “Thiophene compounds and thrombopoietin receptor activators” (Nissan Chemical Industries, Ltd., priority 2005, dated 2011)

System: Human bone marrow CD34+ cells
Test: Megakaryocyte colony stimulating activity (megakaryocyte colony forming method)
Assay type: cell-based
Conditions: 11 days
Experimental: The action of the compounds of Synthetic Examples 1 to 43 of the present invention and Reference Synthetic Examples 29 and 30 on the proliferation, differentiation and maturation of megakaryocyte cells was measured by the megakaryocyte colony forming method using human bone marrow cells. Human bone marrow CD34^+ cells (Cambrex Bio Science Walkersville) were incubated on 2-well chamber slide for 11 days in a CO2 incubator (5% CO2, 37° C.) using MegaCult™-C (StemCell Technologies) containing 0.1% (v/v) of the compounds of Synthetic Examples dissolved in dimethyl sulfoxide. After dehydration and fixation, the cells were stained with an anti-glycoprotein IIb/IIIa antibody in accordance with the instruction by the manufacturer. The colonies consisting of at least 8 stained megakaryocyte cells in each well were counted under a microscope. The megakaryocyte colony counts in at least 2 wells were averaged.

Row | SMILES | Megakaryocyte colony count (drug concentration 0.1 μg/mL) | Megakaryocyte colony count (drug concentration 1 μg/mL) | Megakaryocyte colony count (drug concentration 0.3 μg/mL)
1 | CC(=NNC(=O)c1ccc(C(=O)NCc2cc(C)n(C)n2)s1)c1csc(-c2ccc(Cl)c(Cl)c2)c1O [Synthetic Ex. 37, 5-{1-[5-(3,4-dichlorophenyl)-4-hydroxythiophen-3-yl]ethylidenehydrazinocarbonyl}thiophene-2-carboxylic acid (1,5-dimethyl-1H-pyrazol-3-ylmethyl)amide] | 81 |  | 
2 | C/C(=N\NC(=O)c1ccc(C(=O)O)cc1)c1csc(-c2ccc(Cl)c(Cl)c2)c1O [Reference Synthetic Ex. 29, reference compound] | 2 | 31 | 
3 | CC(=NNC(=O)c1ccc(C(=O)NCc2ccco2)s1)c1csc(-c2ccc(Br)cc2)c1O [Synthetic Ex. 19, 5-{1-[5-(4-bromophenyl)-4-hydroxythiophen-3-yl]ethylidenehydrazinocarbonyl}thiophene-2-carboxylic acid furan-2-ylmethylamide] |  | 171 | 
4 | CNC(=O)c1ccc(C(=O)NN=C(C)c2csc(-c3ccc(Cl)cc3)c2O)s1 [Synthetic Ex. 27, 5-{1-[5-(4-chlorophenyl)-4-hydroxythiophen-3-yl]ethylidenehydrazinocarbonyl}thiophene-2-carboxylic acid methylamide] |  | 201 | 
5 | C/C(=N\NC(=O)c1ccc(C(=O)O)s1)c1csc(-c2ccc(Cl)c(Cl)c2)c1O [Reference Synthetic Ex. 30, reference compound] | 12 | 87 | 34
6 | CC(=NNC(=O)c1ccc(C(=O)NCc2cnccn2)s1)c1csc(-c2ccc(Cl)c(Cl)c2)c1O [Synthetic Ex. 38, 5-{1-[5-(3,4-dichlorophenyl)-4-hydroxythiophen-3-yl]ethylidenehydrazinocarbonyl}thiophene-2-carboxylic acid (pyrazin-2-ylmethyl)amide] | 66 |  | 
7 | CC(=NNC(=O)c1ccc(C(=O)NCc2ccncc2)s1)c1csc(-c2ccc(Br)cc2)c1O [Synthetic Ex. 18, 5-{1-[5-(4-bromophenyl)-4-hydroxythiophen-3-yl]ethylidenehydrazinocarbonyl]thiophene-2-carboxylic acid 4-picolylamide] |  | 125 | 
8 | C/C(=N\NC(=O)c1ccc(C(=O)NCc2ccccn2)s1)c1csc(-c2ccc(OC(F)(F)F)cc2)c1O [Synthetic Ex. 22] | 96 |  | 
9 | CC(=NNC(=O)c1ccc(C(=O)N2CCC(O)C2)s1)c1csc(-c2ccc(C(F)(F)F)cc2)c1O (centres unmarked) [Synthetic Ex. 43, 5-(3-hydroxypyrrolidine-1-carbonyl)thiophene-2-carboxylic acid {1-[5-(4-trifluoromethylphenyl)-4-hydroxythiophen-3-yl]ethylidene}hydrazide] | 109 |  | 
10 | CC(=NNC(=O)c1ccc(C(=O)N2CCCC2)s1)c1csc(-c2ccc(Cl)c(Cl)c2)c1O.[K] [Synthetic Ex. 4, 5-(pyrrolidine-1-carbonyl)thiophene-2-carboxylic acid {1-[5-(3,4-dichlorophenyl)-4-hydroxythiophen-3-yl]ethylidene}hydrazide potassium salt] | 84 | 148 | 
11 | CNC(=O)c1ccc(C(=O)NN=C(C)c2csc(-c3ccc(Br)cc3)c2O)s1 [Synthetic Ex. 20, 5-{1-[5-(4-bromophenyl)-4-hydroxythiophen-3-yl]ethylidenehydrazinocarbonyl}thiophene-2-carboxylic acid methylamide] |  | 185 | 
12 | CC(=NNC(=O)c1ccc(C(=O)N(C)Cc2ccccn2)s1)c1csc(-c2ccc(C(F)(F)F)cc2)c1O.[K] [Synthetic Ex. 13, 5-{1-[5-(4-trifluoromethylphenyl)-4-hydroxythiophen-3-yl]ethylidenehydrazinocarbonyl}thiophene-2-carboxylic acid methyl-2-picolylamide potassium salt] | 61 |  | 
13 | CC(=NNC(=O)c1ccc(C(=O)N(C)C)s1)c1csc(-c2ccc(Cl)c(Cl)c2)c1O.[K] [Synthetic Ex. 5, 5-{1-[5-(3,4-dichlorophenyl)-4-hydroxythiophen-3-yl]ethylidenehydrazinocarbonyl}thiophene-2-carboxylic acid dimethylamide potassium salt] |  | 274 | 
14 | CC(=NNC(=O)c1ccc(C(=O)NC(C)C)s1)c1csc(-c2ccc(C(F)(F)F)cc2)c1O [Synthetic Ex. 23, 5-{1-[5-(4-trifluoromethylphenyl)-4-hydroxythiophen-3-yl]ethylidenehydrazinocarbonyl}thiophene-2-carboxylic acid isopropylamide] |  | 134 | 
15 | CC(=NNC(=O)c1ccc(C(=O)N2CCOCC2)s1)c1csc(-c2ccc(Cl)c(Cl)c2)c1O.[K] [Synthetic Ex. 2, 5-(morpholine-4-carbonyl)thiophene-2-carboxylic acid {1-[5-(3,4-dichlorophenyl)-4-hydroxythiophen-3-yl]ethylidene}hydrazide potassium salt] |  | 239 | 
16 | COCCNC(=O)c1ccc(C(=O)NN=C(C)c2csc(-c3ccc(Cl)c(Cl)c3)c2O)s1.[K] [Synthetic Ex. 6, 5-{1-[5-(3,4-dichlorophenyl)-4-hydroxythiophen-3-yl]ethylidenehydrazinocarbonyl}thiophene-2-carboxylic acid 2-methoxyethylamide potassium salt] | 115 | 151 | 
17 | COc1cc(CNC(=O)c2ccc(C(=O)NN=C(C)c3csc(-c4ccc(Cl)c(Cl)c4)c3O)s2)on1 [Synthetic Ex. 36, 5-{1-[5-(3,4-dichlorophenyl)-4-hydroxythiophen-3-yl]ethylidenehydrazinocarbonyl}thiophene-2-carboxylic acid (3-methoxyisoxazol-5-ylmethyl)amide] | 102 | 135 | 
18 | CC(=NNC(=O)c1ccc(C(=O)NCc2ccccn2)s1)c1csc(-c2ccc(Cl)c(Cl)c2)c1O [Synthetic Ex. 29, 5-{1-[5-(3,4-dichlorophenyl)-4-hydroxythiophen-3-yl]ethylidenehydrazinocarbonyl}thiophene-2-carboxylic acid 2-picolylamide] | 62 |  | 
19 | CC(=NNC(=O)c1ccc(C(=O)NC(C)C)s1)c1csc(-c2ccc(Br)cc2)c1O [Synthetic Ex. 21, 5-{1-[5-(4-bromophenyl)-4-hydroxythiophen-3-yl]ethylidenehydrazinocarbonyl}thiophene-2-carboxylic acid isopropylamide] | 85 |  | 
20 | CC(=NNC(=O)c1ccc(C(=O)NCc2cccnc2)s1)c1csc(-c2ccc(Cl)cc2)c1O [Synthetic Ex. 26, 5-{1-[5-(4-chlorophenyl)-4-hydroxythiophen-3-yl]ethylidenehydrazinocarbonyl}thiophene-2-carboxylic acid 3-picolylamide] |  | 182 | 
21 | CC(=NNC(=O)c1ccc(C(=O)NCc2ccnn2C)s1)c1csc(-c2ccc(Cl)c(Cl)c2)c1O [Synthetic Ex. 32, 5-{1-[5-(3,4-dichlorophenyl)-4-hydroxythiophen-3-yl]ethylidenehydrazinocarbonyl}thiophene-2-carboxylic acid (1-methyl-1H-pyrazol-5-ylmethyl)amide] | 55 |  | 
22 | CC(=NNC(=O)c1ccc(C(=O)NCCc2ccncc2)s1)c1csc(-c2ccc(Cl)c(Cl)c2)c1O [Synthetic Ex. 31, 5-{1-[5-(3,4-dichlorophenyl)-4-hydroxythiophen-3-yl]ethylidenehydrazinocarbonyl}thiophene-2-carboxylic acid 2-(pyridin-4-yl)ethylamide] | 70 | 136 | 
23 | CC(=NNC(=O)c1ccc(C(=O)NCc2cccnc2)s1)c1csc(-c2ccc(Br)cc2)c1O [Synthetic Ex. 17, 5-{1-[5-(4-bromophenyl)-4-hydroxythiophen-3-yl]ethylidenehydrazinocarbonyl}thiophene-2-carboxylic acid 3-picolylamide] |  | 146 | 
24 | CC(=NNC(=O)c1ccc(C(=O)NCc2ccccn2)s1)c1csc(-c2ccc(Cl)cc2)c1O [Synthetic Ex. 25, 5-{1-[5-(4-chlorophenyl)-4-hydroxythiophen-3-yl]ethylidenehydrazinocarbonyl]thiophene-2-carboxylic acid 2-picolylamide] |  | 118 | 
25 | CC(=NNC(=O)c1ccc(C(=O)NCCCc2ccncc2)s1)c1csc(-c2ccc(Cl)c(Cl)c2)c1O [Synthetic Ex. 40, 5-{1-[5-(3,4-dichlorophenyl)-4-hydroxythiophen-3-yl]ethylidenehydrazinocarbonyl}thiophene-2-carboxylic acid 3-(pyridin-4-yl)propylamide] | 70 |  | 
26 | CCN(CC)C(=O)c1ccc(C(=O)NN=C(C)c2csc(-c3ccc(C(F)(F)F)cc3)c2O)s1 [Synthetic Ex. 8, 5-{1-[5-(4-trifluoromethylphenyl)-4-hydroxythiophen-3-yl]ethylidenehydrazinocarbonyl}thiophene-2-carboxylic acid diethylamide] | 147 | 227 | 
27 | CC(=NNC(=O)c1ccc(C(=O)NCc2cc[n+]([O-])cc2)s1)c1csc(-c2ccc(Cl)c(Cl)c2)c1O [Synthetic Ex. 39, 4-[{5-(2-[1-{5-(3,4-dichlorophenyl)-4-hydroxythiophen-3-yl}ethylidene]hydrazinocarbonyl)thiophene-2-carboxamido}methyl]pyridine 1-oxide] | 86 |  | 
